The text below walks through data of the NIST ThermoML archive (doi:10.1016/j.fluid.2005.01.007).

± gives the expanded uncertainty stated by the source.

Data set [1] in a line: refractive index (Na D-line) (dimensionless). Particulars: 298.15 K; 101.33 kPa; Liquid; Standard Abbe refractometry.
The conditions of data set [2]: Liquid; for mass density: 298.15 K, 101.33 kPa.

As for `CCO` [ethanol], the refractive index in data set [1] was determined as 1.35926 ± 0.00072. The mass density in data set [2] was determined as 785.09 ± 0.62 kg/m3. Further, in data set [2] (351.44 K), the “vapor or sublimation pressure” value is 101.32 ± 0.55 kPa.
For `CC(C)CC(C)(C)C` [2,2,4-trimethylpentane], the refractive index in data set [1] worked out at 1.38887 ± 0.00072. Moreover, the mass density in data set [2] was 687.72 ± 0.81 kg/m3. Moreover, the “vapor or sublimation pressure” value in data set [2] (372.33 K) is listed as 101.32 ± 0.55 kPa.
As for `CC(C)=O` [acetone], in data set [1], the refractive index is 1.35597 ± 0.00072. In data set [2], the mass density turned out to be 785.47 ± 0.61 kg/m3. For the same compound, in data set [2] (329.26 K), the “vapor or sublimation pressure” value stood at 101.32 ± 0.55 kPa.

The term refractive index denotes the speed of light in vacuum divided by its phase velocity in the sample. For orientation: mass density means mass per unit of volume. The term vapor or sublimation pressure denotes the pressure of vapour in equilibrium with the condensed phase.
